The source made the active and inactive calls. The calls are words filed in the database; no cut-off is given here.
Tests used:
[1] = Cytotoxicity against human HepG2 2.2.15 cells assessed as reduction in cell viability incubated for 72 hrs by CCK8 assay; assay type: toxicity, cell-based
Hepatitis B virus [2] = assay: Antiviral activity against HBV infected in human HepG2 2.2.15 cells assessed as inhibition of viral DNA replication at 4 uM incubated for 6 days with every 2 days media replacement by RT-PCR analysis relative to control; assay type: functional; parameters: scale not given: the % may be the effect or the level left; conditions: time 6 day
Hepatitis B virus [3] = assay: Potency index, ratio of LAM IC50 to test compound IC50 for HBV infected in ETV/LAM-resistant human HepG2.A64 cells assessed as inhibition of viral DNA replication; assay type: functional
[4] = Selectivity index, ratio of CC50 for human HepG2.A64 cells to IC50 for HBV infected in ETV/LAM-resistant human HepG2.A64 cells; assay type: toxicity; conditions: read-out: Ratio CC50/IC50
Hepatitis B virus [5] = assay: Antiviral activity against HBV infected in ETV/LAM-resistant human HepG2.A64 cells assessed as inhibition of viral DNA replication incubated for 72 hrs by RT-PCR analysis; assay type: functional, organism-based; conditions: HepG2.A64, 72 h
[6] = Selectivity index, ratio of CC50 for human HepG2 2.2.15 cells to IC50 for HBV infected in human HepG2 2.2.15 cells; assay type: toxicity, cell-based; conditions: read-out: Ratio CC50/IC50
[7] = Cytotoxicity against human HepG2.A64 cells assessed as reduction in cell viability incubated for 72 hrs by CCK8 assay; assay type: toxicity, cell-based
Hepatitis B virus [8] = assay: Antiviral activity against HBV infected in human HepG2 2.2.15 cells assessed as inhibition of viral DNA replication incubated for 6 days with every 2 days media replacement by RT-PCR analysis; assay type: functional, organism-based
[9] = target: Nuclear factor NF-kappa-B complex (Homo sapiens) (UniProt Q00653+P19838+Q04206); assay: Activation of NF-kappaB (unknown origin) transfected in HEK293T cells at 0.4 to 10 uM incubated for 48 hrs by Dual-luciferase reporter gene assay; assay type: cell-based; conditions: dose 0.4-10 µM
Chain of Nuclear factor NF-kappa-B complex (Homo sapiens) (P19838 whole entry, looked up): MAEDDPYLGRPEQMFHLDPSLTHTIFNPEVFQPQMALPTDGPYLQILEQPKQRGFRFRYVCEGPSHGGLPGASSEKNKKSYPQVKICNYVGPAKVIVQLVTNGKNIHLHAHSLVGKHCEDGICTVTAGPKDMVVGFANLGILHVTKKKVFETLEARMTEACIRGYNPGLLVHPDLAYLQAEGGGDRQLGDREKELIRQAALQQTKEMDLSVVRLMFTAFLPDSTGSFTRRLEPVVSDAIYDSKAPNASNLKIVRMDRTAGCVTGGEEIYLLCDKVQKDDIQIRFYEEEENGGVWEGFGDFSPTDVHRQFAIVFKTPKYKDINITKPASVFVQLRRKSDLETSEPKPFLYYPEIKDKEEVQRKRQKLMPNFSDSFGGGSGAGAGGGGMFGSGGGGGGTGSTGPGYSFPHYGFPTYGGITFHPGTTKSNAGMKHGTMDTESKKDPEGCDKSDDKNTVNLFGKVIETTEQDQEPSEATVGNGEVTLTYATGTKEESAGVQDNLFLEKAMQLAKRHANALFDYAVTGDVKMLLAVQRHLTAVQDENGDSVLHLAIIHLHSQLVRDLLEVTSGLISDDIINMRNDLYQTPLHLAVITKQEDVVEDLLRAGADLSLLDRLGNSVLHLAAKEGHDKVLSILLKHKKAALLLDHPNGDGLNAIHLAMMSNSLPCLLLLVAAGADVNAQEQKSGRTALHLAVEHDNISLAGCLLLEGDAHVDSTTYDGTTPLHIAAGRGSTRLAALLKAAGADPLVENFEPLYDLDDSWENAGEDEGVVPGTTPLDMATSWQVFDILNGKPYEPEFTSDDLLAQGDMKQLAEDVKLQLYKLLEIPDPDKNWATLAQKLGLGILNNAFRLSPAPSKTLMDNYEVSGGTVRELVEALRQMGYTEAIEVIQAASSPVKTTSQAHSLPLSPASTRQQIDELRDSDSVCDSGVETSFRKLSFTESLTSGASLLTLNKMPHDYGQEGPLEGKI
Chain of Nuclear factor NF-kappa-B complex (Homo sapiens) (Q00653 whole entry, looked up): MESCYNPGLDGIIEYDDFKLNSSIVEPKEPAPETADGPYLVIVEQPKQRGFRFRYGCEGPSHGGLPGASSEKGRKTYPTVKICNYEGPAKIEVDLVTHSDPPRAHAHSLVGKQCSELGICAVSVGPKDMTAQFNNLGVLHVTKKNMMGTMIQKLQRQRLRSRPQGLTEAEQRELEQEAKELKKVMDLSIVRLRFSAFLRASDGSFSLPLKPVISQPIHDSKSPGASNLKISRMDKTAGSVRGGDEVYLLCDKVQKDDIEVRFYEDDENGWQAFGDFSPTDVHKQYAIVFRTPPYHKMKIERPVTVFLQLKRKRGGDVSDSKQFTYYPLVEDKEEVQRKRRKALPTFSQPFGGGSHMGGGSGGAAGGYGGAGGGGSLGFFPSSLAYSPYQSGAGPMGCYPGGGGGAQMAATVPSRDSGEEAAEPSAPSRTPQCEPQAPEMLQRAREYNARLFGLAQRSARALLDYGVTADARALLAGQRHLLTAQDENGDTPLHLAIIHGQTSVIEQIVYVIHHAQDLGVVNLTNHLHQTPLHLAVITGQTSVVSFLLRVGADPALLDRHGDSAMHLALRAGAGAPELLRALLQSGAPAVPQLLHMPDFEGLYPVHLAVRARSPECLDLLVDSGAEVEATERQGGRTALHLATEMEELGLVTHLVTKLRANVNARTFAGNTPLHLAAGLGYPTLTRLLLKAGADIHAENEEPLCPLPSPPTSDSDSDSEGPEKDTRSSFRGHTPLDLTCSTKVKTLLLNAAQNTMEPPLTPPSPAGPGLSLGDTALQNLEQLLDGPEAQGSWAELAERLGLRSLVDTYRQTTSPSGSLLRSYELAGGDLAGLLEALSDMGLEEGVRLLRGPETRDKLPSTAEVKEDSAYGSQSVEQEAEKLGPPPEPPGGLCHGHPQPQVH
Chain of Nuclear factor NF-kappa-B complex (Homo sapiens) (Q04206 whole entry, looked up): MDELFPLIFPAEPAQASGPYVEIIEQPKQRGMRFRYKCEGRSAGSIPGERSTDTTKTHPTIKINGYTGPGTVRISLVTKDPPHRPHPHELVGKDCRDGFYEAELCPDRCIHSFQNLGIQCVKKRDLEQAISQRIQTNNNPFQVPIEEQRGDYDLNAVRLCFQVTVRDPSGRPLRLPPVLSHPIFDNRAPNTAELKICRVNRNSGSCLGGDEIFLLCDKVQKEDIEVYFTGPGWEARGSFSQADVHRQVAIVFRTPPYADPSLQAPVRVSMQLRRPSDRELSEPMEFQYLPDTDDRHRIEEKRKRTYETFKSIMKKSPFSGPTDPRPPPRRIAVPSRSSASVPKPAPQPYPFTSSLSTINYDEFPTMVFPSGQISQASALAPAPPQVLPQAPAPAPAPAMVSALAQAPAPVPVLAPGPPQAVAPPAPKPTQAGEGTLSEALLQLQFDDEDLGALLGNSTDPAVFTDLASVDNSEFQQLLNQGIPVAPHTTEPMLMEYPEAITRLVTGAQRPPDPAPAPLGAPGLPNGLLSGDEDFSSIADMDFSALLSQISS

[10] = target: T1, Toll-like receptor 8 (Homo sapiens) (UniProt Q9NR97); assay: Agonist activity at TLR8 in human PBMC cells assessed as increase in TNF-alpha level incubated for 24 hrs by ELISA; assay type: cell-based; conditions: filed as agonist, dose 0.4-10 µM
T1 sequence (whole entry): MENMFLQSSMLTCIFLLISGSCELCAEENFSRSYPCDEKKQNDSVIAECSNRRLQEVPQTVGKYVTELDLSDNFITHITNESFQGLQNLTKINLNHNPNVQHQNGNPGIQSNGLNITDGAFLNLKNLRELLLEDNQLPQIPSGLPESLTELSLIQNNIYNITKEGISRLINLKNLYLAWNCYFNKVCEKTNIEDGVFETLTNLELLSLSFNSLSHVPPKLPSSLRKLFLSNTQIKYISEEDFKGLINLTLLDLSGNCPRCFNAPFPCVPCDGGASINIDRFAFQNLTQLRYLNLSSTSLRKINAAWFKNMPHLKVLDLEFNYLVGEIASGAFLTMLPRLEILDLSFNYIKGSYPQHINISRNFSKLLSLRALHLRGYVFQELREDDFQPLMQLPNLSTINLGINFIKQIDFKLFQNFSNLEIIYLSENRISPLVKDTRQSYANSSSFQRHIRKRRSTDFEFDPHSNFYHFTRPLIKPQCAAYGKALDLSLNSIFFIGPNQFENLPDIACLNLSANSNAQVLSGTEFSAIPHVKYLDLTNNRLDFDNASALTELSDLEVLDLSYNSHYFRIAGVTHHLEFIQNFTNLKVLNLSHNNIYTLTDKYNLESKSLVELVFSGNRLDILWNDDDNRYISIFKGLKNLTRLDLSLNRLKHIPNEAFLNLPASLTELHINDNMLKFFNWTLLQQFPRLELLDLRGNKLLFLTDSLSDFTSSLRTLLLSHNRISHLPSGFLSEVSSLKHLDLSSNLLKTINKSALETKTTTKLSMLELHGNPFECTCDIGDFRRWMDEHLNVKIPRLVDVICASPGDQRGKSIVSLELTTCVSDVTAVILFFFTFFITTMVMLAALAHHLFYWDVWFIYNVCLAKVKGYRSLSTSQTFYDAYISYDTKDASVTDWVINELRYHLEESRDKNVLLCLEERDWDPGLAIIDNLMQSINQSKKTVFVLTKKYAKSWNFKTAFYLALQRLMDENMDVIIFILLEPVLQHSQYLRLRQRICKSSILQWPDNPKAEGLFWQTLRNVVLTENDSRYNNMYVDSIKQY

[11] = target: T1, Toll-like receptor 8 (Homo sapiens); assay: Agonist activity at TLR8 in human PBMC cells assessed as increase in IL-12 level incubated for 24 hrs by ELISA; assay type: cell-based; conditions: filed as agonist, dose 0.4-10 µM
[12] = target: T1, Toll-like receptor 8 (Homo sapiens); assay: Agonist activity at human TLR8 transfected in HEK293T cells co-transfected with NF-kappaB and renilla assessed as increase in TLR8-induced NF-kappaB activity at 0.4 to 10 uM incubated for 48 hrs by Dual-luciferase reporter gene assay; assay type: cell-based; conditions: filed as agonist, dose 0.4-10 µM

Structure (SMILES): O=C(CCn1cnc2cc(-c3noc(CCC4CCCC4)n3)ccc21)NC1CCCC1
- CC50 at 72 h [1]: > 20 µM
- Activity (Hepatitis B virus [2]): 21.36%

Structure (SMILES): O=C(NCCn1cnc2cc(-c3noc(CCC4CCCC4)n3)ccc21)c1ccc(C(F)(F)F)cc1
- Ratio IC50 (Hepatitis B virus [3]): 150
- CC50 at 72 h [1]: > 20 µM
- Activity (Hepatitis B virus [2]): 63.99%
- selectivity ratio [4]: > 32.8
- IC50 (Hepatitis B virus [5]): 0.61 µM
- selectivity ratio [6]: > 29
- CC50 at 72 h [7]: > 20 µM
- IC50 (Hepatitis B virus [8]): 0.69 µM

Structure (SMILES): O=C(NCCn1cnc2cc(-c3noc(CCC4CCCC4)n3)ccc21)c1ccccc1C(F)(F)F
- CC50 at 72 h [1]: > 20 µM
- Activity (Hepatitis B virus [2]): 46.02%
- selectivity ratio [6]: > 5.14
- IC50 (Hepatitis B virus [8]): 3.89 µM

Structure (SMILES): O=C(NCCn1cnc2cc(-c3noc(CCC4CCCC4)n3)ccc21)c1cccc(Br)c1
- CC50 at 72 h [1]: > 20 µM
- Activity (Hepatitis B virus [2]): 64.39%
- selectivity ratio [6]: > 6.02
- IC50 (Hepatitis B virus [8]): 3.32 µM

Structure (SMILES): O=C(CCn1cnc2cc(-c3noc(CCC4CCCC4)n3)ccc21)N1CCCCC1
- CC50 at 72 h [1]: > 20 µM
- Activity (Hepatitis B virus [2]): 53.4%
- selectivity ratio [6]: > 3.17
- IC50 (Hepatitis B virus [8]): 6.3 µM

Structure (SMILES): O=C(NCCn1cnc2cc(-c3noc(CCC4CCCC4)n3)ccc21)c1ccccc1Br
- CC50 at 72 h [1]: > 20 µM
- Activity (Hepatitis B virus [2]): 53.47%
- selectivity ratio [6]: > 12.4
- IC50 (Hepatitis B virus [8]): 1.61 µM

Structure (SMILES): O=C(CCn1cnc2cc(-c3noc(CCc4ccccc4)n3)ccc21)N1CCCC1
- CC50 at 72 h [1]: > 20 µM
- Activity (Hepatitis B virus [2]): 24.46%

Structure (SMILES): O=C(CCn1cnc2cc(-c3noc(CCC4CCCC4)n3)ccc21)N1CCCC1
- CC50 at 72 h [1]: > 20 µM
- Activity (Hepatitis B virus [2]): 48.57%
- selectivity ratio [6]: > 3.69
- IC50 (Hepatitis B virus [8]): 5.17 µM

Structure (SMILES): O=C(NCCn1cnc2cc(-c3noc(CCC4CCCC4)n3)ccc21)c1cccc(I)c1
- CC50 at 72 h [1]: > 20 µM
- Activity (Hepatitis B virus [2]): 68.86%
- selectivity ratio [6]: > 12
- IC50 (Hepatitis B virus [8]): 1.67 µM

Structure (SMILES): O=C(NCCn1cnc2cc(-c3noc(CCC4CCCC4)n3)ccc21)c1cccc(Cl)c1
- CC50 at 72 h [1]: > 20 µM
- Activity (Hepatitis B virus [2]): 82.78%
- selectivity ratio [6]: > 23.5
- IC50 (Hepatitis B virus [8]): 0.85 µM

Structure (SMILES): O=C(NCCn1cnc2cc(-c3noc(CCC4CCCC4)n3)ccc21)c1ccc(Br)cc1
- CC50 at 72 h [1]: > 20 µM
- Activity (Hepatitis B virus [2]): 38.03%

Structure (SMILES): O=C(NCCn1cnc2cc(-c3noc(CCC4CCCC4)n3)ccc21)c1cccc(F)c1
- CC50 at 72 h [1]: > 20 µM
- Activity (Hepatitis B virus [2]): 45.92%

Structure (SMILES): COc1ccccc1C(=O)NCCn1cnc2cc(-c3noc(CCC4CCCC4)n3)ccc21
- CC50 at 72 h [1]: > 20 µM
- Activity (Hepatitis B virus [2]): 76.09%
- selectivity ratio [6]: > 12.9
- IC50 (Hepatitis B virus [8]): 1.55 µM

Structure (SMILES): Cc1ccccc1NC(=O)CCn1cnc2cc(-c3noc(CCC4CCCC4)n3)ccc21
- CC50 at 72 h [1]: > 20 µM
- Activity (Hepatitis B virus [2]): 7.43%

Structure (SMILES): Nc1ccn([C@@H]2CS[C@H](CO)O2)c(=O)n1 [LAMIVUDINE]
- CC50 at 72 h [1]: > 20 µM
- Activity (Hepatitis B virus [2]): 84.42%
- IC50 (Hepatitis B virus [5]): > 100 µM
- selectivity ratio [6]: > 1000
- CC50 at 72 h [7]: > 100 µM
- IC50 (Hepatitis B virus [8]): < 0.1 µM

Structure (SMILES): O=C(CCn1cnc2cc(-c3noc(CCC4CCCCC4)n3)ccc21)N1CCCC1
- CC50 at 72 h [1]: > 20 µM
- Activity (Hepatitis B virus [2]): 0.74%

Structure (SMILES): COc1ccc(C(=O)NCCn2cnc3cc(-c4noc(CCC5CCCC5)n4)ccc32)cc1
- CC50 at 72 h [1]: > 20 µM
- Activity (Hepatitis B virus [2]): 73.8%
- selectivity ratio [6]: > 7.58
- IC50 (Hepatitis B virus [8]): 2.64 µM

Structure (SMILES): O=C(NCCn1cnc2cc(-c3noc(CCC4CCCC4)n3)ccc21)c1ccccc1Cl
- CC50 at 72 h [1]: > 20 µM
- Activity (Hepatitis B virus [2]): 10.63%

Structure (SMILES): Cc1cccc(C(=O)NCCn2cnc3cc(-c4noc(CCC5CCCC5)n4)ccc32)c1
- CC50 at 72 h [1]: > 20 µM
- Activity (Hepatitis B virus [2]): 9.58%

Structure (SMILES): O=C(CCn1cnc2cc(-c3noc(CCC4CCCC4)n3)ccc21)NC1CCCCC1
- CC50 at 72 h [1]: > 20 µM
- Activity (Hepatitis B virus [2]): 2.64%

Structure (SMILES): COc1cccc(C(=O)NCCn2cnc3cc(-c4noc(CCC5CCCC5)n4)ccc32)c1
- CC50 at 72 h [1]: > 20 µM
- Activity (Hepatitis B virus [2]): 70.78%
- selectivity ratio [6]: > 12.5
- IC50 (Hepatitis B virus [8]): 1.6 µM

Structure (SMILES): Cc1ccccc1C(=O)NCCn1cnc2cc(-c3noc(CCC4CCCC4)n3)ccc21
- CC50 at 72 h [1]: > 20 µM
- Activity (Hepatitis B virus [2]): 6.59%

Structure (SMILES): O=C(NCCn1cnc2cc(-c3noc(CCC4CCCC4)n3)ccc21)c1ccccc1
- CC50 at 72 h [1]: > 20 µM
- Activity (Hepatitis B virus [2]): 28.98%

Structure (SMILES): O=C(NCCn1cnc2cc(-c3noc(CCC4CCCC4)n3)ccc21)c1ccccc1F
- CC50 at 72 h [1]: > 20 µM
- Activity (Hepatitis B virus [2]): 54.72%
- selectivity ratio [6]: > 18.7
- IC50 (Hepatitis B virus [8]): 1.07 µM

Structure (SMILES): O=C(NCCn1cnc2cc(-c3noc(CCC4CCCC4)n3)ccc21)c1cccc(C(F)(F)F)c1
- Ratio IC50 (Hepatitis B virus [3]): 150
- Activity [9]: inactive
- CC50 at 72 h [1]: > 20 µM
- Activity (Hepatitis B virus [2]): 84.47%
- Activity [10]: Dose-Dependent Effect
- Activity [11]: Dose-Dependent Effect
- selectivity ratio [4]: > 45.5
- IC50 (Hepatitis B virus [5]): 0.44 µM
- selectivity ratio [6]: > 37.7
- Activity [12]: Active
- CC50 at 72 h [7]: > 20 µM
- IC50 (Hepatitis B virus [8]): 0.53 µM

Structure (SMILES): O=C(CCn1cnc2cc(-c3noc(CCC4CCCC4)n3)ccc21)N1CCOCC1
- CC50 at 72 h [1]: > 20 µM
- Activity (Hepatitis B virus [2]): 0.02%

Structure (SMILES): O=C(NCCn1cnc2cc(-c3noc(CCC4CCCC4)n3)ccc21)c1ccc(Cl)cc1
- CC50 at 72 h [1]: > 20 µM
- Activity (Hepatitis B virus [2]): 63.41%
- selectivity ratio [6]: > 10.2
- IC50 (Hepatitis B virus [8]): 1.96 µM

Structure (SMILES): O=C(NCCn1cnc2cc(-c3noc(CCC4CCCC4)n3)ccc21)c1ccc(I)cc1
- CC50 at 72 h [1]: > 20 µM
- Activity (Hepatitis B virus [2]): 54.76%
- selectivity ratio [6]: > 7.6
- IC50 (Hepatitis B virus [8]): 2.63 µM

Structure (SMILES): O=C(NCCn1cnc2cc(-c3noc(CCC4CCCC4)n3)ccc21)c1ccc(F)cc1
- CC50 at 72 h [1]: > 20 µM
- Activity (Hepatitis B virus [2]): 65.06%
- selectivity ratio [6]: > 15
- IC50 (Hepatitis B virus [8]): 1.33 µM

Structure (SMILES): Cc1ccc(C(=O)NCCn2cnc3cc(-c4noc(CCC5CCCC5)n4)ccc32)cc1
- CC50 at 72 h [1]: > 20 µM
- Activity (Hepatitis B virus [2]): 54.11%
- selectivity ratio [6]: > 13.1
- IC50 (Hepatitis B virus [8]): 1.53 µM

Structure (SMILES): O=C(NCCn1cnc2cc(-c3noc(CCC4CCCC4)n3)ccc21)c1ccccc1I
- CC50 at 72 h [1]: > 20 µM
- Activity (Hepatitis B virus [2]): 30.88%

Reference: ChEMBL document CHEMBL5247587, “Discovery of benzimidazole substituted 1, 2, 4-oxadiazole compounds as novel anti-HBV agents with TLR8-agonistic activities” (Eur J Med Chem, 2022)
